According to US9744236B2, “Photolabile compounds” (The Trustees of Columbia University in the City of New York, priority 2009, dated 2017):

Legend:
[1] = 1H-NMR in D2O, isotopic exchange / inertness; type: physicochemical; conditions: 2 months in D2O at room temperature
Source text: The aliphatic region corresponding to the glutamate moiety is depicted in the upper trace of FIG. 18, where —NH2 protons appear at 4.50, 4.12, 4.00 and 3.57 ppm. […] This behavior differs from that of free glutamate which, under the same conditions, exchanges rapidly D+ for H+.

[2] = Flash photolysis, uncaging time; type: physicochemical; conditions: basic aqueous solution, 532 nm, 10 ns pulse
Method: In order to estimate the uncaging time, a flash photolysis experiment was performed on a basic aqueous solution of [Ru(bpy)2(PMe3)Glu] using the second harmonic of a Nd-YAGlaser (532 nm, 10 ns pulse). The photocleavage occurs within the first 50 ns, being the fastest reported caged compound, to our knowledge. The fact that a tens of nanoseconds are required to complete the glutamate uncaging reaction is compatible with the observation that the excited state lifetime measured for a similar compound containing pyridine instead of glutamate is in the range of 10-100 ns.

[3] = tested on: living neocortical pyramidal neurons in mouse brain slices; test: Biocompatibility test on brain slices (two-photon microscopy, whole-cell patch recordings); type: cell-based; conditions: 350 μM, 1 hour of incubation
Method: Biocompatibility tests were performed to evaluate the potential toxicity of the complex. 350 μM [Ru(bpy)2(PMe3)Glu], a concentration used for two-photon uncaging experiments, was incubated with living neocortical pyramidal neurons in mouse brain slices, and carefully monitored the morphology and electrophysiological properties of the neurons using two-photon microscopy and whole-cell patch recordings.

[4] = Cyclic voltammetry, redox potential; type: physicochemical; conditions: acetonitrile, vs. NHE
Method: UV-vis spectra in water were obtained with an HP 8453 diode array spectrophotometer. RMN ^1H spectra were obtained using a Bruker 500 MHz equipment. CV measurements were performed with a PAR 273A potentiostat. Irradiation was effected by means of a pulsed Xe lamp, (pulse energy ˜0.5 J), with a low-pass filter at 480 nm. Irradiation using a 473 nm DPSS laser gave similar results.
(See, e.g., E. S. Dodsworth et al., 1986, Chem. Phys. Lett., 124:152-158). The photoactivity of these compounds has been explained in terms of a reaction pathway that involves the transition between the MLCT state to a lower-energy d-d state, which promotes ligand release. There is a direct correspondence between the energy of the MLCT transition and the quantum yield of the photoreaction. For [Ru(bpy)2(4AP)CH3CN]^2+, the photoreaction yield is about φPR=0.4. Since [Ru(bpy)2(4AP)2]Cl2 presents a red-shifted band, a lower photoreaction yield is expected. An estimate based on early experiments leads to an estimate of φPR≅0.02 at 473 nm.
Its aqueous solutions present a strong metal to ligand charge-transfer band (MLCT band) at 450 nm, characteristic of this family of Ru polypyridines.

[5] = Photorelease of glutamate, UV-Vis during 450 nm LED irradiation; type: physicochemical
Method: As the photoreaction proceeds, the generation of the aquo complex was recorded to reach completion in about 4 minutes. The presence of two isosbestic points as well as a factor analysis performed on the spectra indicate that just two colored species are present in the solution, according to what is expected in a single photoaquation process. The spectrum of the photoproduct was found identical to that of the complex [Ru(bpy)2(PMe3)(H2O)]2^+, which can be synthesized by refluxing the chloro complex in water. At pH=11 a similar behavior was observed, although in this case the product is the hydroxo complex [Ru(bpy)2(PMe3)(OH)]^+.
The irradiance of the light source was calibrated using the known efficiency of the photolysis of [Ru(bpy)(Py)2]^2+. The amount of photoreleased glutamate was fitted using a two-parameter single-exponential function: y=a[1−exp(−bx)] and the quantum yield (φPC) was obtained as a•b, adopting a value of 0.13 at pH=7 and 0.10 at pH=11.

[6] = in aqueous solutions; cited from earlier work
[7] = Behaviour of modified rhodamine ligand at physiological pH; type: physicochemical
Source text: Given these properties, the chemical structure of rhodamine B was modified by adding a “sticky tail” in order to coordinate the fluorescent molecule to the metal center. In a first attempt to synthesize a modified rhodamine bearing a coordinating group, carboxylate was amidated with aminopropionitrile, using the Adamczyk procedure (Adamczyk, M. J. Bioorg. Med. Chem. Lett. 2000, 10: 1539-1541). The obtained compound is RhodB-APN, indicated in scheme 1B. […] Rhodamine 6G can be modified similarly to the rhodamine B, described above.

Retzius cells = test: Injection of caged fluorescent probe into living neurons; type: cell-based, Hirudo medicinalis; conditions: short-term (˜2 h) experiments
Method: Microscopy of leech (Hirudo medicinalis) ganglia was performed in a custom-made setup for photoelectrophisiology equipped with a micromanipulator used to impale the neuron body with the ˜1 μm tip diameter capillaries, and a CCD webcam as a registering device. An isolated leech ganglion from a segment between 7 and 14 was pinned down in a sylgard-coated, 35 mm Petri dish. Retzius cells were identified by their position, size, and firing behavior. Intracellular recordings were obtained with ˜20 MΩ sharp capillary microelectrodes, a Neuroprobe 1600 (A-M Systems) amplifier and a A/D signal acquisition board at 1 kHz sampling rate and custom-made software. For iontophoretical injection of the dye the microelectrode was filled with recording solution to which 1 mM caged fluorescent dye (chloride form) was added. Square, biphasic pulses of 1 nA, 2 Hz were applied for less that 5 min.
This example provides an activatable fluorescent probe with surprising sensitivity in the visible light region. It increases its intrinsic fluorescence up to 6-fold after blue light irradiation. […] The probe was used to image the laminar flow inside a thin spectrophotometric flow cell and to visualize the parabolic-shaped flow in a FIA capillary.

[8] = Fluorescence emission quantum yield before and after irradiation; type: physicochemical; conditions: after blue light (473 nm) irradiation
Source text: All reagents were purchased from Sigma-Aldrich and used as received. Ru(bpy)2Cl2 was synthesized according to the literature using water as solvent (Viala, C.; Coudret, C. Inorg. Chim. Acta 2006, 359: 984-989). UV-vis spectra were taken with a HP8453 diode-array spectrometer. NMR spectra were obtained using a 500 MHz Bruker AM-500. Fluorescence emission measurements were made with a PTI Quantamaster spectrofluorometer, corrected for the instruments response function. Rhodamine B was used as fluorescence standard of emission quantum yield (φ=0.31 in aqueous solutions). Quantum yield of the complex was obtained directly from the ratio of the spectral areas, which present the same shape.
FIG. 20 depicts the emission spectra of the complex during irradiation. The maximum and the shape of the initial emission spectrum is the same as that of the free ligand RhodB-MAPN but the emission quantum yield is much lower, around pt=0.04. Quantum yields are easily calculated integrating the spectral areas. After irradiation with a 473 nm laser, RhodB-MAPN is released and the solution increases its fluorescence up to 6 fold, to φt=0.24.

CP(C)C.F[P-](F)(F)(F)(F)F.F[P-](F)(F)(F)(F)F.NC(CCC(=O)O)C(=O)O.[Ru+2].c1ccc(-c2ccccn2)nc1.c1ccc(-c2ccccn2)nc1 [[Ru(bpy)2(PMe3)GlutH2](PF6)2]
isotopic exchange of coordinated -NH2 (inertness) [1]: no exchange is seen | photocleavage time [2]: ≤ 50 ns | effects on morphology and electrophysiological properties of neurons [3]: no detectable effects were observed | redox process, Ru(III)/Ru(II) couple of the original complex [4]: 0.98 V | quantum yield (φPC) of glutamate photorelease ([5]; pH=7): 0.13 | time for photoreaction to reach completion ([5]; pH=7, 450±20 nm LED): about 4 minutes | quantum yield (φPC) of glutamate photorelease ([5]; pH=11): 0.10

CCN(CC)c1ccc2c(-c3ccccc3C(=O)O)c3ccc(=[N+](CC)CC)cc-3oc2c1.[Cl-] [Rhodamine B]
emission quantum yield (fluorescence standard) [6]: 0.31

CCN(CC)c1ccc2c(-c3ccccc3C(=O)NCCC#N)c3ccc(=[N+](CC)CC)cc-3oc2c1 [RhodB-APN]
stability of fluorescent form [7]: undergoes isomerization to the cyclic spirolactame form

CCN(CC)c1ccc2c(-c3ccccc3C(=O)N(C)CCC#N)c3ccc(=[N+](CC)CC)cc-3oc2c1.[Cl-].[Cl][Ru+].c1ccc(-c2ccccn2)nc1.c1ccc(-c2ccccn2)nc1 [[Ru(bpy)2(RhodB-MAPN)Cl]Cl]
acute toxicity in injected living cells (Retzius cells): no sign of acute toxicity | increase of fluorescence [8]: up to 6 fold
